The values that follow come from PubChem BioAssay AID248 (DTP/NCI, 2004).

Molecules are shown by their SMILES. Where “and” joins values, the source holds several entries; their conditions need not be identical. Identical values can stand only once. Toxic doses and inconclusive results are not listed.

This assay deals with L1210 leukemia ip in BDF1 mice, survival T/C. Put plainly: NCI In Vivo Anticancer Drug Screen. Data for tumor model L1210 Leukemia (intraperitoneal) in B6D2F1 (BDF1) mice. The settings on record: endpoint: mean survival time, higher = longer survival. The procedure, abridged: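 Tumor was transplanted into mice, which were then dosed with test compound or vehicle alone. Survival was recorded for each group, and the treated figure was expressed relative to the control figure.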

The mark [1] stands for this setting: dose: 100.0 mg/kg/injection, schedule: Q04DX003 (ip), vehicle: saline.
Setting [2] is: dose: 200.0 mg/kg/injection, schedule: Q04DX003 (ip), vehicle: saline.
[3] abbreviates: dose: 400.0 mg/kg/injection, schedule: Q04DX003 (ip), vehicle: saline.
[4] abbreviates: dose: 12.5 mg/kg/injection, schedule: Q04DX003 (ip), vehicle: saline.
Where [5] appears, read: dose: 100.0 mg/kg/injection, schedule: Q01DX001 (ip), vehicle: saline.
Setting [6] is: dose: 200.0 mg/kg/injection, schedule: Q01DX001 (ip), vehicle: saline.
[7] abbreviates: dose: 400.0 mg/kg/injection, schedule: Q01DX001 (ip), vehicle: saline.

Regarding `CC(=O)OC1CC(C)(C)CC(OC(C)=O)C1(C)C` (configuration not stated), the T/C is, setting by setting: (dose: 75.0 mg/kg/injection, schedule: Q01DX001 (ip), vehicle: saline) 100 % of control; (dose: 150.0 mg/kg/injection, schedule: Q01DX001 (ip), vehicle: saline) 111 % of control.

As to `Cc1ccccc1SC(=O)Nc1cc(C(F)(F)F)ccc1Cl`, the T/C is 100 % of control (dose: 100.0 mg/kg/injection, schedule: Q01DX009 (ip), vehicle: Klucel (hydroxypropylcellulose) (HPC)); 98 % of control (dose: 200.0 mg/kg/injection, schedule: Q01DX009 (ip), vehicle: Klucel (hydroxypropylcellulose) (HPC)); 100 % of control (dose: 400.0 mg/kg/injection, schedule: Q01DX009 (ip), vehicle: Klucel (hydroxypropylcellulose) (HPC)).

For `CC[N+](CC)(CCO)CCCCCCCCCC[N+](CC)(CC)CCO`, the T/C (dose: 0.15 mg/kg/injection, schedule: Q04DX003 (ip), vehicle: saline) was 100 % of control; the T/C (dose: 0.3 mg/kg/injection, schedule: Q04DX003 (ip), vehicle: saline) is 103 % of control; the T/C (dose: 0.6 mg/kg/injection, schedule: Q04DX003 (ip), vehicle: saline) is 105 % of control.

For the compound `COC(CNCCO)c1ccccc1` (configuration not stated), the T/C was 104 % of control (dose: 25.0 mg/kg/injection, schedule: Q01DX009 (ip), vehicle: saline with Tween-80); 98 % of control (dose: 50.0 mg/kg/injection, schedule: Q01DX009 (ip), vehicle: saline with Tween-80); 106 % of control (dose: 100.0 mg/kg/injection, schedule: Q01DX009 (ip), vehicle: saline with Tween-80).

As for `CC(N)C(=O)NC(Cc1ccccc1)C(=O)O` (configuration not stated), the T/C was 101 % of control (dose: 100.0 mg/kg/injection, schedule: Q01DX001 (ip), vehicle: acetone); 97 % of control (dose: 200.0 mg/kg/injection, schedule: Q01DX001 (ip), vehicle: acetone); 101 % of control (dose: 400.0 mg/kg/injection, schedule: Q01DX001 (ip), vehicle: acetone).

With `N=C(N)c1ccc(-c2cc3ccc(C(=N)N)cc3s2)cc1`, the T/C is, setting by setting: (dose: 12.5 mg/kg/injection, schedule: Q04DX003 (ip), vehicle: saline with Tween-80) 96 % of control; (dose: 25.0 mg/kg/injection, schedule: Q04DX003 (ip), vehicle: saline with Tween-80) 107 % of control; (dose: 50.0 mg/kg/injection, schedule: Q04DX003 (ip), vehicle: saline with Tween-80) 96 % of control.

On to `COCCN1CCC(C)(CO)C1` (configuration not stated), for which the T/C was 87 % of control under setting [1], 93 % of control under setting [2] and 92 % of control under setting [3].

Turning to `[Cl][Pt+2][Cl].[NH-]c1ccc(Cl)cc1[NH-]`, the T/C runs as follows: under setting [4], 178 % of control; (dose: 25.0 mg/kg/injection, schedule: Q04DX003 (ip), vehicle: saline) 113 % of control; under setting [1], 105 % of control and 108 % of control; (dose: 800.0 mg/kg/injection, schedule: Q04DX003 (ip), vehicle: saline) 103 % of control.

Turning to `CC(=O)N1Cc2c(N)nc(N)nc2C1C` (configuration not stated), the T/C runs as follows: (dose: 100.0 mg/kg/injection, schedule: Q01DX001 (ip), vehicle: carboxymethylcellulose (CMC)) 101 % of control; (dose: 200.0 mg/kg/injection, schedule: Q01DX001 (ip), vehicle: carboxymethylcellulose (CMC)) 95 % of control; (dose: 400.0 mg/kg/injection, schedule: Q01DX001 (ip), vehicle: carboxymethylcellulose (CMC)) 104 % of control.

Turning to `O=C(O)c1ccccc1/C=N/N1C(=O)CSC1=S`, the T/C is 97 % of control (dose: 2.5 mg/kg/injection, schedule: Q01DX001 (ip), vehicle: carboxymethylcellulose (CMC)); 97 % of control (dose: 5.0 mg/kg/injection, schedule: Q01DX001 (ip), vehicle: carboxymethylcellulose (CMC)); 109 % of control (dose: 10.0 mg/kg/injection, schedule: Q01DX001 (ip), vehicle: carboxymethylcellulose (CMC)).

On to `CC(C)=CC[N+]12CN3CN(CN(C3)C1)C2`, for which the T/C runs as follows: under setting [1], 97 % of control; under setting [2], 103 % of control; under setting [3], 110 % of control.

Turning to `CC(C)(C)C1CCC(O)C(Cl)C1` (configuration not stated), the T/C runs as follows: (dose: 100.0 mg/kg/injection, schedule: Q01DX009 (ip), vehicle: saline) 100 % of control; (dose: 200.0 mg/kg/injection, schedule: Q01DX009 (ip), vehicle: saline) 98 % of control.

Consider `CCC(CC)COC(=O)CI`, for which the T/C is, setting by setting: (dose: 5.0 mg/kg/injection, schedule: Q01DX001 (ip), vehicle: saline) 100 % of control; (dose: 10.0 mg/kg/injection, schedule: Q01DX001 (ip), vehicle: saline) 100 % of control; (dose: 20.0 mg/kg/injection, schedule: Q01DX001 (ip), vehicle: saline) 100 % of control; (dose: 40.0 mg/kg/injection, schedule: Q01DX001 (ip), vehicle: saline) 100 % of control; (dose: 80.0 mg/kg/injection, schedule: Q01DX001 (ip), vehicle: saline) 100 % of control.

As to `C(=C\c1ccc(C2=NCCN2)cc1)/c1ccc(C2=NCCN2)cc1`, the T/C was 115 % of control (dose: 11.5 mg/kg/injection, schedule: Q01DX Z (ip), vehicle: carboxymethylcellulose (CMC)); 119 % of control (dose: 23.0 mg/kg/injection, schedule: Q01DX Z (ip), vehicle: carboxymethylcellulose (CMC)); 150 % of control (dose: 46.0 mg/kg/injection, schedule: Q01DX Z (ip), vehicle: carboxymethylcellulose (CMC)); 103 % of control (dose: 62.0 mg/kg/injection, schedule: Q01DX Z (oral), vehicle: carboxymethylcellulose (CMC)); 108 % of control (dose: 125.0 mg/kg/injection, schedule: Q01DX Z (oral), vehicle: carboxymethylcellulose (CMC)); 104 % of control (dose: 250.0 mg/kg/injection, schedule: Q01DX Z (oral), vehicle: carboxymethylcellulose (CMC)). Further, under “dose: 500.0 mg/kg/injection, schedule: Q01DX Z (oral), vehicle: carboxymethylcellulose (CMC)”, the T/C is 101 % of control.

Take `CC1=CP(=O)(c2ccccc2)CC1` (configuration not stated): the T/C is 102 % of control under setting [5], 102 % of control under setting [6] and 105 % of control under setting [7].

In the case of `ClCCN(CCCl)c1ccc(-n2cnc3c(Cl)ncnc32)cc1`, the T/C (dose: 32.0 mg/kg/injection, schedule: Q01DX015 (ip), vehicle: carboxymethylcellulose (CMC)) is 96 % of control; the T/C (dose: 64.0 mg/kg/injection, schedule: Q01DX015 (ip), vehicle: carboxymethylcellulose (CMC)) is 96 % of control; the T/C (dose: 128.0 mg/kg/injection, schedule: Q01DX015 (ip), vehicle: carboxymethylcellulose (CMC)) was 97 % of control; the T/C (dose: 256.0 mg/kg/injection, schedule: Q01DX015 (ip), vehicle: carboxymethylcellulose (CMC)) is 105 % of control.

Turning to `O=C1OC(/C=C/c2ccccc2)=NC/1=C\c1ccccc1`, the T/C is, setting by setting: (dose: 100.0 mg/kg/injection, schedule: Q04DX002 (ip), vehicle: saline with Tween-80) 92 % of control; (dose: 200.0 mg/kg/injection, schedule: Q04DX002 (ip), vehicle: saline with Tween-80) 95 % of control; (dose: 400.0 mg/kg/injection, schedule: Q04DX002 (ip), vehicle: saline with Tween-80) 92 % of control.

As for `O=S(=O)(Cl)C1c2ccccc2-c2ccccc21`, the T/C (dose: 100.0 mg/kg/injection, schedule: Q04DX002 (ip), vehicle: other) was 104 % of control; the T/C (dose: 200.0 mg/kg/injection, schedule: Q04DX002 (ip), vehicle: other) was 96 % of control; the T/C (dose: 400.0 mg/kg/injection, schedule: Q04DX002 (ip), vehicle: other) was 90 % of control.

Take `Clc1cc(Cl)c(OCC#CI)cc1Cl`: the T/C runs as follows: (dose: 50.0 mg/kg/injection, schedule: Q01DX001 (ip), vehicle: saline) 104 % of control; under setting [5], 98 % of control; under setting [6], 93 % of control; under setting [7], 89 % of control.

For the compound `FC(F)(F)c1ccc2c(c1)N(CCCN1CCN(CCOc3ccccc3)CC1)c1ccccc1S2`, the T/C reads like this: (dose: 6.25 mg/kg/injection, schedule: Q04DX003 (ip), vehicle: saline) 105 % of control; (dose: 8.2 mg/kg/injection, schedule: Q04DX003 (ip), vehicle: saline) 97 % of control and 98 % of control; under setting [4], 104 % of control; (dose: 18.0 mg/kg/injection, schedule: Q04DX003 (ip), vehicle: saline) 101 % of control and 102 % of control.

As for `CC(C)CCCC(C)C1CCC2C3CC=C4CC(OC(=O)c5cc([N+](=O)[O-])c(N6CC6)c([N+](=O)[O-])c5)CCC4(C)C3CCC12C` (configuration not stated), the T/C (dose: 50.0 mg/kg/injection, schedule: Q01DX001 (sc), vehicle: steriod suspending solution) is 110 % of control; the T/C (dose: 100.0 mg/kg/injection, schedule: Q01DX001 (sc), vehicle: steriod suspending solution) is 96 % of control; the T/C (dose: 200.0 mg/kg/injection, schedule: Q01DX001 (sc), vehicle: steriod suspending solution) is 102 % of control; the T/C (dose: 400.0 mg/kg/injection, schedule: Q01DX001 (sc), vehicle: steriod suspending solution) is 96 % of control.
